# Test results as given in article PMC7413254 (Nature Communications, 2020).
# Like-named read-outs stand apart in the source and are kept apart here.
# How the values were obtained:
# PfCRT [1] = experiment: Influx of VF-6 via PfCRT into the oocyte, solutes tested as potential co-substrates; assay type: cell-based, Plasmodium falciparum; design: key: X: Compounds that have been tested as potential co-substrates but are not required for influx of VF-6 via PfCRT into the oocyte; details: X marks the solute
# non-expressing oocytes [2] = experiment: cells; assay type: cell-based, Xenopus laevis; details: Xenopus laevis, total [3H]CQ transport; for inhibition at 500 µM: [test solute] = 0.5 mM; for inhibition at 1000 µM: [test solute] = 1 mM; for inhibition at 2000 µM: [test solute] = 2 mM
# Method in brief: (§1)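 Transport runs from the acidic bath into the cytosol, analogous to PfCRT-mediated efflux out of the vacuole. Non-expressing oocytes act as background.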
# PfCRT^3D7 [3] = molecular target: T1, PfCRT^3D7 (Plasmodium falciparum, UniProt Q8IBZ9); experiment: cell-based; assay type: cell-based
# T1 sequence (Q8IBZ9 59-398): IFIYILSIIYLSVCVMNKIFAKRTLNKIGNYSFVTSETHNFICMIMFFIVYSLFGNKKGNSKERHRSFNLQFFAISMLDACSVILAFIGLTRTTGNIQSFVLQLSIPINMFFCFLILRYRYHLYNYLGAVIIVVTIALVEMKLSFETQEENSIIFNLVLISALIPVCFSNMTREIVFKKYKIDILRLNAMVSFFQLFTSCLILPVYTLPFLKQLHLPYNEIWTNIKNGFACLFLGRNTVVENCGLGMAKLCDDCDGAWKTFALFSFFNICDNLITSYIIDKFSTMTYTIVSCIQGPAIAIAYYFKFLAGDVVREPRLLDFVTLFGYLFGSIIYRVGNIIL
# Method in brief: (§2)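 Oocytes (ten per treatment, ≥4 independent frogs/days) were preloaded by injecting VF-6 in 25 nL ND96 at pH 5.0, 5.5, 6.0 or 7.0, or Na^+-free choline buffer, then uptake run 1.5 h, 27.5 °C, ND96 pH 5.5 by default. Internal concentrations assumed ~400 nL oocyte volume.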
# PfCRT^Ecu1110 [4] = molecular target: T2, PfCRT^Ecu1110 (Plasmodium falciparum, UniProt Q9N623, A220S/I356L/K76T/N326D); experiment: cell-based; assay type: cell-based; details: […]
# T2 sequence (Q9N623 whole entry A220S/I356L/K76T/N326D): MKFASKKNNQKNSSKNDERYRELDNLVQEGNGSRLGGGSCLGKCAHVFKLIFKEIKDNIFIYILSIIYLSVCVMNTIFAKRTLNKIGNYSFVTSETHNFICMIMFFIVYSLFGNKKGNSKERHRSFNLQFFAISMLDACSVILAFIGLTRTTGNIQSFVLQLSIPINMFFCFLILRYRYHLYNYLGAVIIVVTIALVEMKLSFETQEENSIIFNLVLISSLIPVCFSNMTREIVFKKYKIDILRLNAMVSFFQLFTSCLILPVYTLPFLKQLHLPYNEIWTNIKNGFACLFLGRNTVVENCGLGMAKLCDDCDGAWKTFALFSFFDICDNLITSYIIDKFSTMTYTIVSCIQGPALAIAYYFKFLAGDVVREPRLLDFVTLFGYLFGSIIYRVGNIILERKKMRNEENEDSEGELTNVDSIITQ
# Method in brief: as §2
# PfNT1 = molecular target: T3, PfNT1 (Plasmodium falciparum, UniProt Q8IDM6); experiment: cell-based; assay type: cell-based; details: for activity at 5000 µM: total [3H]CQ transport
# T3 construct: expressed in transfected cells; host or cells: Xenopus laevis oocytes (stage V-VI), cRNA-injected
# T3 sequence (Q8IDM6 whole entry): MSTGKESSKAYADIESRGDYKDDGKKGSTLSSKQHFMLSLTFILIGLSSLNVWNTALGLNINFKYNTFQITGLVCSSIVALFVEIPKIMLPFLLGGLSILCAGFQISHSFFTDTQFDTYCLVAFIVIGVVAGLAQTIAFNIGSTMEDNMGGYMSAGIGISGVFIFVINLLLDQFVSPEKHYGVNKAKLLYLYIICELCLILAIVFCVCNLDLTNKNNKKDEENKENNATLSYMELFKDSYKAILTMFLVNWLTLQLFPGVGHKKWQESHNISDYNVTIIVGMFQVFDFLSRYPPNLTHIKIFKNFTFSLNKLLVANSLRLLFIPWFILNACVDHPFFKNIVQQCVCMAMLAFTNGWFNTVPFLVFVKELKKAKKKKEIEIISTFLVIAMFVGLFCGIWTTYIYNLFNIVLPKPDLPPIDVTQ
# Method in brief: as §2
# PfCRT^Dd2 [5] = molecular target: T4, PfCRT^Dd2 (Plasmodium falciparum, UniProt Q9N623, A220S/I356T/K76T/M74I/N326S/N75E/Q271E/R371I); experiment: cell-based; assay type: cell-based; details: […]
# T4 sequence (Q9N623 whole entry A220S/I356T/K76T/M74I/N326S/N75E/Q271E/R371I): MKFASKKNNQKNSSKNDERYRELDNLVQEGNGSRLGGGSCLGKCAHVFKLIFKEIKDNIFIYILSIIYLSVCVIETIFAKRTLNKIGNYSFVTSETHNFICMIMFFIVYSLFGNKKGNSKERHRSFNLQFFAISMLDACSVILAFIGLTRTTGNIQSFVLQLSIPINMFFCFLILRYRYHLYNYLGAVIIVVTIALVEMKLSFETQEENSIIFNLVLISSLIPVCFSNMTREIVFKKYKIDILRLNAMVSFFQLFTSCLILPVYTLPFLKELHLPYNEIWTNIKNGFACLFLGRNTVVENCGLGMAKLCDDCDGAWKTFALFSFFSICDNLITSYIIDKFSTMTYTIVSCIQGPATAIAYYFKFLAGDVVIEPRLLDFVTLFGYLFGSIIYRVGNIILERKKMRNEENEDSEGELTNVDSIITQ
# Method in brief: as §2
# PfCRT^3D7 [6] = molecular target: T1, PfCRT^3D7; experiment: cell-based; assay type: cell-based; details: total [3H]CQ transport; for inhibition at 500 µM: [test solute] = 0.5 mM; for inhibition at 1000 µM: [test solute] = 1 mM; for inhibition at 2000 µM: [test solute] = 2 mM
# Method in brief: as §1
# non-expressing oocytes [7] = assay type: cell-based, Xenopus laevis; details: total [3H]CQ transport; for Uptake of [3H]CQ (% non-expressing oocyte control), trans-stimulation: non-expressing oocytes, normalised to the oocyte type control; for Uptake of [3H]CQ (% PfCRTDd2 control), trans-stimulation, non-expressing oocytes: mean ± SEM, SEM
# Method in brief: as §2
# PfCRT^Ecu1110 [8] = molecular target: T2, PfCRT^Ecu1110; experiment: [3H]CQ uptake into Xenopus oocytes, cis-inhibition by unlabelled solute; assay type: cell-based
# Method in brief: as §1
# PfCRT^Dd2 [9] = molecular target: T4, PfCRT^Dd2; experiment: as above; assay type: cell-based
# Method in brief: as §1
# PfCRT [10] = experiment: Test of solutes as potential co-substrates for influx of VF-6 via PfCRT into the oocyte; assay type: cell-based, Plasmodium falciparum; design: key: X: Compounds that have been tested as potential co-substrates but are not required for influx of VF-6 via PfCRT into the oocyte; details: X = tested
# [11] = Oocyte, mean ± SEM, SEM, read-out: Uptake of [3H]CQ (% PfCRTDd2 control), cis-inhibition, non-expressing oocytes
# [12] = non-expressing oocytes, normalised to the oocyte type control, read-out: Uptake of [3H]CQ (% non-expressing oocyte control), cis-inhibition
# [13] = PfCRT3D7 oocytes, normalised to the oocyte type control, read-out: Uptake of [3H]CQ (% PfCRT3D7 control), cis-inhibition
# [14] = mean ± SEM, SEM, read-out: Uptake of [3H]CQ (% PfCRTDd2 control), cis-inhibition, PfCRT3D7
# [15] = read-out: PfCRT-mediated [3H]CQ transport, cis-inhibition (% PfCRTEcu1110 control)
# [16] = read-out: Uptake of [3H]CQ (% PfCRTDd2 control), cis-inhibition, PfCRTEcu1110, SEM
# [17] = read-out: Uptake of [3H]CQ (% PfCRTEcu1110 control), cis-inhibition
# [18] = read-out: [3H]CQ transport (% PfCRTEcu1110 control), cis-inhibition, PfCRTEcu1110, SEM
# [19] = read-out: PfCRT-mediated [3H]CQ transport, cis-inhibition (% PfCRTDd2 control)
# [20] = read-out: Uptake of [3H]CQ (% PfCRTDd2 control), cis-inhibition, PfCRTDd2, SEM
structure (smiles),measurement,setting,value
N[C@@H](Cc1c[nH]cn1)C(=O)O [L-histidine],Compounds that have been tested as potential co-substrates but are not required for influx of VF-6 via PfCRT into the oocyte,PfCRT [1],X
same,inhibition at 500 µM,non-expressing oocytes [2]; [11],2.4 ± 0.06%
same,inhibition at 1000 µM,non-expressing oocytes [2]; [11],2.8 ± 0.07%
same,inhibition at 2000 µM,non-expressing oocytes [2]; [11],2.6 ± 0.05%
same,inhibition at 500 µM,non-expressing oocytes [2]; [12],96 ± 4.3%
same,inhibition at 1000 µM,non-expressing oocytes [2]; [12],99 ± 3.7%
same,inhibition at 2000 µM,non-expressing oocytes [2]; [12],99 ± 4.7%
same,activity at 5000 µM,"PfCRT^3D7 [3]; PfCRT3D7 oocytes, [test solute]i = 5 mM, total [3H]CQ transport, normalised to the oocyte type control, read-out: Uptake of [3H]CQ (% PfCRT3D7 control), trans-stimulation",97 ± 3.6%
same,"[3H]CQ transport (% PfCRT3D7 control), trans-stimulation, PfCRT3D7",PfCRT^3D7 [3]; SEM,0.2 ± 0.01 % PfCRT3D7 control
same,activity at 5000 µM,"PfCRT^3D7 [3]; [test solute]i = 5 mM (intracellular), PfCRT3D7 oocytes, normalised to oocyte type control, read-out: PfCRT-mediated [3H]CQ transport, trans-stimulation (% PfCRT3D7 control)",95 ± 2.9%
same,activity at 45000 µM,"PfCRT^3D7 [3]; SEM, read-out: Uptake of [3H]CQ (% PfCRTDd2 control), trans-stimulation, PfCRT3D7",3.3 ± 0.02%
same,activity at 45000 µM,"PfCRT^3D7 [3]; read-out: PfCRT-mediated [3H]CQ transport, trans-stimulation (% PfCRT3D7 control)",97 ± 2.2%
same,activity at 45000 µM,"PfCRT^3D7 [3]; read-out: Uptake of [3H]CQ (% PfCRT3D7 control), trans-stimulation",99 ± 3.7%
same,activity at 5000 µM,"PfCRT^3D7 [3]; total [3H]CQ transport, [test solute]i = 5 mM (intracellular), mean ± SEM, SEM, read-out: Uptake of [3H]CQ (% PfCRTDd2 control), trans-stimulation, PfCRT3D7",3.2 ± 0.09%
same,activity at 5000 µM,"PfCRT^Ecu1110 [4]; pH 5.5, read-out: Uptake of [3H]CQ (% PfCRTEcu1110 control), trans-stimulation, PfCRTEcu1110 oocytes, [test solute]i = 5 mM, total [3H]CQ transport, normalised to the oocyte type control",100 ± 3.6%
same,activity at 45000 µM,"PfCRT^Ecu1110 [4]; pH 5.5, read-out: Uptake of [3H]CQ (% PfCRTEcu1110 control), trans-stimulation, PfCRTEcu1110 oocytes, [test solute]i = 45 mM (30 mM for some solutes due to solubility), total [3H]CQ transport, normalised to the oocyte type control",99 ± 3%
same,activity at 5000 µM,"PfCRT^Ecu1110 [4]; read-out: Uptake of [3H]CQ (% PfCRTDd2 control), trans-stimulation, PfCRTEcu1110, total [3H]CQ transport, [test solute]i = 5 mM (intracellular), mean ± SEM, SEM",36 ± 1.3%
same,activity at 45000 µM,"PfCRT^Ecu1110 [4]; read-out: Uptake of [3H]CQ (% PfCRTDd2 control), trans-stimulation, PfCRTEcu1110, total [3H]CQ transport, [test solute]i = 45 mM (intracellular; 30 mM for some solutes due to solubility), mean ± SEM, SEM",35 ± 2.5%
same,activity at 5000 µM,"PfNT1; PfNT1 oocytes, [test solute]i = 5 mM, normalised to the oocyte type control, read-out: Uptake of [3H]CQ (% PfNT1 control), trans-stimulation",99 ± 3.3%
same,activity at 45000 µM,"PfNT1; SEM, read-out: Uptake of [3H]CQ (% PfCRTDd2 control), trans-stimulation, PfNT1",2.6 ± 0.04%
same,activity at 45000 µM,"PfNT1; read-out: Uptake of [3H]CQ (% PfNT1 control), trans-stimulation",99 ± 4.2%
same,activity at 5000 µM,"PfNT1; [test solute]i = 5 mM (intracellular), mean ± SEM, SEM, read-out: Uptake of [3H]CQ (% PfCRTDd2 control), trans-stimulation, PfNT1",2.2 ± 0.09%
same,activity at 5000 µM,"PfCRT^Dd2 [5]; pH 5.5, read-out: Uptake of [3H]CQ (% PfCRTDd2 control), trans-stimulation, PfCRTDd2, total [3H]CQ transport, [test solute]i = 5 mM (intracellular), mean ± SEM, SEM",101 ± 2.2%
same,activity at 5000 µM,"PfCRT^Dd2 [5]; pH 5.5, read-out: Uptake of [3H]CQ (% PfCRTDd2 control), trans-stimulation, PfCRTDd2 oocytes, [test solute]i = 5 mM, total [3H]CQ transport, normalised to the oocyte type control",101 ± 2.2%
same,activity at 45000 µM,"PfCRT^Dd2 [5]; pH 5.5, read-out: Uptake of [3H]CQ (% PfCRTDd2 control), trans-stimulation, PfCRTDd2 oocytes, [test solute]i = 45 mM (30 mM for some solutes due to solubility), total [3H]CQ transport, normalised to the oocyte type control",97 ± 3.2%
same,inhibition at 500 µM,PfCRT^3D7 [6]; [13],99 ± 5.2%
same,inhibition at 1000 µM,PfCRT^3D7 [6]; [13],99 ± 3.6%
same,inhibition at 2000 µM,PfCRT^3D7 [6]; [13],101 ± 4.7%
same,inhibition at 500 µM,PfCRT^3D7 [6]; [14],3.7 ± 0.02%
same,inhibition at 1000 µM,PfCRT^3D7 [6]; [14],2.8 ± 0.02%
same,inhibition at 2000 µM,PfCRT^3D7 [6]; [14],2.8 ± 0.03%
same,"Uptake of [3H]CQ (% non-expressing oocyte control), trans-stimulation",non-expressing oocytes [7]; [test solute]i = 5 mM,99 ± 3.6 % non-expressing oocyte control
same,"Uptake of [3H]CQ (% non-expressing oocyte control), trans-stimulation",non-expressing oocytes [7]; [test solute]i = 45 mM (30 mM for some solutes due to solubility),100 ± 4.8 % non-expressing oocyte control
same,"Uptake of [3H]CQ (% PfCRTDd2 control), trans-stimulation, non-expressing oocytes",non-expressing oocytes [7]; [test solute]i = 5 mM (intracellular),3.0 ± 0.06 % PfCRTDd2 control
same,"Uptake of [3H]CQ (% PfCRTDd2 control), trans-stimulation, non-expressing oocytes",non-expressing oocytes [7]; [test solute]i = 45 mM (intracellular; 30 mM for some solutes due to solubility),2.5 ± 0.01 % PfCRTDd2 control
same,inhibition at 500 µM,PfCRT^Ecu1110 [8]; [15],95 ± 1.5%
same,inhibition at 1000 µM,PfCRT^Ecu1110 [8]; [15],94 ± 3.2%
same,inhibition at 2000 µM,PfCRT^Ecu1110 [8]; [15],98 ± 2.6%
same,inhibition at 500 µM,PfCRT^Ecu1110 [8]; [16],32 ± 1.4%
same,inhibition at 1000 µM,PfCRT^Ecu1110 [8]; [16],31 ± 2.1%
same,inhibition at 2000 µM,PfCRT^Ecu1110 [8]; [16],33 ± 1%
same,inhibition at 500 µM,PfCRT^Ecu1110 [8]; [17],97 ± 5.6%
same,inhibition at 1000 µM,PfCRT^Ecu1110 [8]; [17],96 ± 4.6%
same,inhibition at 2000 µM,PfCRT^Ecu1110 [8]; [17],100 ± 8.2%
same,inhibition at 500 µM,PfCRT^Ecu1110 [8]; [18],29 ± 0.4%
same,inhibition at 1000 µM,PfCRT^Ecu1110 [8]; [18],28 ± 0.2%
same,inhibition at 2000 µM,PfCRT^Ecu1110 [8]; [18],30 ± 1.3%
same,inhibition at 500 µM,PfCRT^Dd2 [9]; [19],96 ± 3.6%
same,inhibition at 1000 µM,PfCRT^Dd2 [9]; [19],97 ± 4.1%
same,inhibition at 500 µM,PfCRT^Dd2 [9]; [20],98 ± 9.7%
same,inhibition at 1000 µM,PfCRT^Dd2 [9]; [20],99 ± 4.2%
same,inhibition at 2000 µM,PfCRT^Dd2 [9]; [20],100 ± 2.2%
same,Tested as potential co-substrate but not required for influx of VF-6 via PfCRT into the oocyte,PfCRT [10],X
